Common to all, as to type: biochemical
In assay [1] the target is T1, human MMP-1 (amino acids 100-262) (Homo sapiens, UniProt P03956).
T1 construct: human MMP-1 (amino acids 100-262); made in house
T1 sequence (P03956 100-262): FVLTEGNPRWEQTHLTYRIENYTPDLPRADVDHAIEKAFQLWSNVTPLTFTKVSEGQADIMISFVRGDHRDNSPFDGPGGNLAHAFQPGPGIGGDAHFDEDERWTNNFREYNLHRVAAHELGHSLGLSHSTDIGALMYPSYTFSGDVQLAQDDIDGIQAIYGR
Kind of assay: MMP dose response assay for determining IC50, MMP-1. As to conditions: recombinant catalytic domain, fluorescent-quench substrate 100 nM. Put shortly: (§1)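 Recombinant enzymes in 50 mM HEPES pH 7.4, 10 mM CaCl2, 0.05% Brij-35, at empirically set levels keeping activity linear, preincubated 1 h at room temperature with compound in triplicate. Fluorescence-quench peptide substrate (Eu/QSY7) added at 100 nM final. Background-subtracted signal expressed as percent of DMSO control for IC50.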

The target in assay [2] is T2, human MMP-2 (amino acids 1-660) (Homo sapiens, UniProt P08253).
T2 construct: human MMP-2 (amino acids 1-660); made in house
T2 sequence (P08253 110-660): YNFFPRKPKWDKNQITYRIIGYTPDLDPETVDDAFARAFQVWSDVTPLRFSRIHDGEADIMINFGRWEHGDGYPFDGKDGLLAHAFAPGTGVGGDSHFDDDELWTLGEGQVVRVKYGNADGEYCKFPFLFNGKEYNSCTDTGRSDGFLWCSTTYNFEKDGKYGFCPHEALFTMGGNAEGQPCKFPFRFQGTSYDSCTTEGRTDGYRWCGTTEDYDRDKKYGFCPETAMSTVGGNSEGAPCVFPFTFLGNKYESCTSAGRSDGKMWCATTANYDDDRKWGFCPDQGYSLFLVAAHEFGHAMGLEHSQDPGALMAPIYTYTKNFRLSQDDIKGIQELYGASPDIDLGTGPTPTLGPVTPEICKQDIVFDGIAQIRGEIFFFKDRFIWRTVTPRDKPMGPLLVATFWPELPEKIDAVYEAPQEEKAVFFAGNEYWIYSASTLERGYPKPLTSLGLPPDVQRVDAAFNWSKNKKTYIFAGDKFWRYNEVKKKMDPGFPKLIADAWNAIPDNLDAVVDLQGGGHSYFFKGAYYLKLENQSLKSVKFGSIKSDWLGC
In words: MMP dose response assay for determining IC50, MMP-2. The following applies: recombinant enzyme, fluorescent-quench substrate 100 nM; read-out: MMP-2. In a few lines: as §1

Assay [3] has as its target T3, human MMP-9 (amino acids 107-446) (Homo sapiens, UniProt P14780).
T3 construct: human MMP-9 (amino acids 107-446); made in house
Kind of assay: MMP dose response assay for determining IC50, MMP-9. The following applies: recombinant enzyme, fluorescent-quench substrate 100 nM; read-out: MMP-9. In a few lines: as §1

Several values for one entry are separate records, joined by “and”; a condition that tells them apart may be missing. Equal values may be shown once.

T3 sequence (P14780 107-446): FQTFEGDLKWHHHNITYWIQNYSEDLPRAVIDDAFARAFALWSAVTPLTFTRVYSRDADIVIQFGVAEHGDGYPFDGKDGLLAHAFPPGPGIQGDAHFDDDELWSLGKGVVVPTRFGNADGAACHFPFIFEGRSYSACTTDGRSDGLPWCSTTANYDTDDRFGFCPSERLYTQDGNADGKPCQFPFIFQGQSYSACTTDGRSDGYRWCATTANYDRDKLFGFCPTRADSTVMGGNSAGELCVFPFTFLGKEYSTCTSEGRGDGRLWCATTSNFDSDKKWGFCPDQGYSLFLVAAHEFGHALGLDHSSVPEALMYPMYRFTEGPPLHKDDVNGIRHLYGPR

Consider `Cc1ccc(Oc2ccc(N(C[C@H](Nc3ccc4ccccc4c3)C(=O)NO)S(C)(=O)=O)cc2)cc1` [Example 60, N-Hydroxy (2S)-3-{N-[4-(4-methylphenoxy)phenyl],N-methanesulfonylamino}-2-(naphthylen-2-yl)aminopropionamide], for which the IC50 in assay [1] is 5.98 µM and > 10 µM; in assay [2], 1440 nM and 875 nM; in assay [3] it was 86.5 nM and 93.8 nM.

Turning to `CS(=O)(=O)N(C[C@H](O)C(=O)NO)c1ccc(C#Cc2ccc(Cl)cc2)cc1` [Example 62, N-Hydroxy (2S)-2-hydroxy-3-{N-[4-(4-chlorophenylacetylene)phenyl],N-methanesulfonylamino}propionamide], the IC50 in assay [1] was more than 10 µM; in assay [2], 56.2 nM; in assay [3] it was 47.3 nM.

For the compound `CS(=O)(=O)N(C[C@H](O)C(=O)NO)c1ccc(C#Cc2cccs2)cc1` [Example 64, N-Hydroxy (2S)-2-hydroxy-3-{N-[4-(4-thiophen-2-ylacetylene)phenyl],N-methanesulfonylamino}propionamide], the IC50 is more than 10 µM in assay [1], 103 nM in assay [2] and 774 nM in assay [3].

Turning to `CS(=O)(=O)N(C[C@@H](C(=O)NO)N1CCN(C(=O)OCc2ccccc2)CC1)c1ccc(Oc2ccc(C(F)(F)F)cc2)cc1` [Example 67, N-Hydroxy (2S)-2-[(4-benzyloxycarbonyl)piperazin-1-yl]-3-{N-[4-(4-trifluoromethylphenoxy)phenyl],N-methanesulfonylamino}propionamide], the IC50 is more than 10 µM in assay [1]; 4.76 nM and 4.37 nM in assay [2]; 6.52 nM and 8.51 nM in assay [3].

For `CC(C)N(CCNC(=O)OCc1ccccc1)[C@@H](CN(c1ccc(Oc2ccc(C(F)(F)F)cc2)cc1)S(C)(=O)=O)C(=O)NO` [Example 68], the IC50 in assay [1] is more than 10 µM; in assay [2], 262 nM; in assay [3], 28.8 nM.

As to `CC(C)N(Cc1ccccc1)[C@@H](CN(c1ccc(Oc2ccc(C(F)(F)F)cc2)cc1)S(C)(=O)=O)C(=O)NO` [Example 69, N-Hydroxy (2S)-2-[N-benzyl-N-(2-propyl)amino]-3-{N-[4-(4-trifluoromethylphenoxy)phenyl],N-methanesulfonylamino}propionamide], the IC50 in assay [1] is more than 10 µM; in assay [2], 281 nM; in assay [3], 67.5 nM.

In the case of `CS(=O)(=O)N(C[C@@H](C(=O)NO)N1CCS(=O)(=O)CC1)c1ccc(Oc2ccc(C(F)(F)F)cc2)cc1` [Example 70, N-Hydroxy (2S)-2-[1,1-bis(oxo)thiomorpholin-4-yl]-3-{N-[4-(4-trifluoromethylphenoxy)phenyl],N-methanesulfonylamino}propionamide], the IC50 in assay [1] was more than 10 µM; in assay [2] it was 4.65 nM and 4.99 nM and 15.8 nM; in assay [3], 1.9 nM and 1.52 nM and 6.29 nM.

`CS(=O)(=O)N(C[C@@H](C(=O)NO)N1CCC(O)CC1)c1ccc(Oc2ccc(C(F)(F)F)cc2)cc1` [Example 71, N-Hydroxy (2S)-2-(4-hydroxypiperidin-1-yl)-3-{N-[4-(4-trifluoromethylphenoxy)phenyl],N-methanesulfonylamino}propionamide]: the IC50 in assay [1] is 8.55 µM and > 10 µM; in assay [2], 1.57 nM and 4.93 nM and 10.7 nM; in assay [3] it was 0.66 nM and 1.45 nM and 3.56 nM.

Regarding `CS(=O)(=O)N(C[C@@H](C(=O)NO)N1Cc2ccccc2C1)c1ccc(Oc2ccc(C(F)(F)F)cc2)cc1` [Example 72, N-Hydroxy (2S)-2-(isoindolin-2-yl)-3-{N-[4-(4-trifluoromethylphenoxy)phenyl],N-methanesulfonylamino}propionamide], the IC50 is more than 10 µM in assay [1]; 3.76 nM and 1.02 nM in assay [2]; 0.72 nM and 0.17 nM in assay [3].

Take `CN(C)[C@H]1CCN([C@@H](CN(c2ccc(Oc3ccc(C(F)(F)F)cc3)cc2)S(C)(=O)=O)C(=O)NO)C1` [Example 74, N-Hydroxy (2S)-2-[(3S)-3-N,N-dimethylaminopyrrolidin-1-yl]-3-{N-[4-(4-trifluoromethylphenoxy)phenyl],N-methanesulfonylamino}propionamide]: the IC50 in assay [1] was more than 10 µM; in assay [2], 17.7 nM; in assay [3], 3.86 nM.

As to `CN(C)[C@@H]1CCN([C@@H](CN(c2ccc(Oc3ccc(C(F)(F)F)cc3)cc2)S(C)(=O)=O)C(=O)NO)C1` [Example 75, N-Hydroxy (2S)-2-[(3R)-3-N,N-dimethylaminopyrrolidin-1-yl]-3-{N-[4-(4-trifluoromethylphenoxy)phenyl],N-methanesulfonylamino}propionamide], the IC50 in assay [1] was more than 10 µM; in assay [2], 15.2 nM and 21.5 nM; in assay [3] it was 2.18 nM and 3.16 nM.

As for `CS(=O)(=O)N(C[C@@H](C(=O)NO)N1CCC(c2ccccc2)CC1)c1ccc(Oc2ccc(C(F)(F)F)cc2)cc1` [Example 76, N-Hydroxy (2S)-3-{N-[4-(4-trifluoromethylphenoxy)phenyl],N-methanesulfonylamino}-2-(4-phenylpiperidin-1-yl)propionamide], the IC50 is more than 10 µM in assay [1], 47.2 nM in assay [2] and 17 nM in assay [3].

Take `CS(=O)(=O)N(C[C@@H](C(=O)NO)N1CCN(c2ccc(Cl)cc2)CC1)c1ccc(Oc2ccc(C(F)(F)F)cc2)cc1` [Example 77, N-Hydroxy (2S)-2-[4-(4-chlorophenyl)piperazin-1-yl]-3-{N-[4-(4-trifluoromethylphenoxy)phenyl],N-methanesulfonylamino}propionamide]: the IC50 in assay [1] is more than 10 µM; in assay [2], 119 nM; in assay [3], 256 nM.

Regarding `CS(=O)(=O)N(C[C@H](NCCc1c[nH]c2ccccc12)C(=O)NO)c1ccc(Oc2ccc(C(F)(F)F)cc2)cc1` [Example 78], the values for the IC50 in assay [1], in assay [2] and in assay [3] were more than 10 µM, 318 nM and 116 nM, respectively.

In the case of `CS(=O)(=O)N(C[C@@H](C(=O)NO)N1CCC(O)(c2ccc(Br)cc2)CC1)c1ccc(Oc2ccc(C(F)(F)F)cc2)cc1` [Example 79, N-Hydroxy (2S)-2-[4-(4-bromophenyl)-4-hydroxypiperidin-1-yl]-3-{N-[4-(4-trifluoromethylphenoxy)phenyl],N-methanesulfonylamino}propionamide], the IC50 in assay [1] is more than 10 µM; in assay [2], 38.9 nM; in assay [3], 37.1 nM.

For the compound `CC(C)N(CCN1C(=O)N(C)C(C)(C)C1=O)[C@@H](CN(c1ccc(Oc2ccc(C(F)(F)F)cc2)cc1)S(C)(=O)=O)C(=O)NO` [Example 80, N-Hydroxy (2S)-2-{N-(2-propyl),N-[2-(1,5,5-trimethylhydantoin-3-yl)ethyl]amino}-3-{N-[4-(4-trifluoromethylphenoxy)phenyl]-N-methanesulfonylamino}propionamide], the IC50 in assay [1] is more than 10 µM; in assay [2] it was 24.3 nM; in assay [3], 2.67 nM.

In the case of `COC[C@H]1CCCN1[C@@H](CN(c1ccc(Oc2ccc(C(F)(F)F)cc2)cc1)S(C)(=O)=O)C(=O)NO` [Example 81, N-Hydroxy (2S)-2-[(2R)-2-methoxymethylpyrrolidin-1-yl]-3-{N-[4-(4-trifluoromethylphenoxy)phenyl],N-methanesulfonylamino}propionamide], the results for the IC50 in assay [1], in assay [2] and in assay [3] were more than 10 µM, 14.2 nM and 3.16 nM, respectively.

As to `COC[C@@H]1CCCN1[C@@H](CN(c1ccc(Oc2ccc(C(F)(F)F)cc2)cc1)S(C)(=O)=O)C(=O)NO` [Example 82, N-Hydroxy (2S)-2-[(2S)-2-methoxymethylpyrrolidin-1-yl]-3-{N-[4-(4-trifluoromethylphenoxy)phenyl],N-methanesulfonylamino}propionamide], the IC50 in assay [1] was more than 10 µM; in assay [2], 11.3 nM; in assay [3] it was 7.32 nM.

For `CS(=O)(=O)N1CCN([C@@H](CN(c2ccc(Oc3ccc(C(F)(F)F)cc3)cc2)S(C)(=O)=O)C(=O)NO)CC1` [Example 83, N-Hydroxy (2S)-2-(4-methanesulfonylpiperazin-1-yl)-3-{N-[4-(4-trifluoromethylphenoxy)phenyl],N-methanesulfonylamino}propionamide], the IC50 in assay [1] was more than 10 µM; in assay [2], 6.21 nM and 13.5 nM; in assay [3], 1.94 nM and 4.5 nM.

As to `CC(=O)N1CCN([C@@H](CN(c2ccc(Oc3ccc(C(F)(F)F)cc3)cc2)S(C)(=O)=O)C(=O)NO)CC1` [Example 84, N-Hydroxy (2S)-2-(4-acetylpiperazin-1-yl)-3-{N-[4-(4-trifluoromethylphenoxy)phenyl],N-methanesulfonylamino}propionamide], the IC50 is more than 10 µM in assay [1], 8.55 nM in assay [2] and 4.81 nM in assay [3].

The values above are taken from patent publication US20080085893A1, “MATRIX METALLOPROTEASE INHIBITORS” (priority 2006, published 2008).
